The text below walks through data of patent US9228121B2, “Process for the co-encapsulation of biocidally active compounds in clay minerals functionalized by nitrogen compounds” (Clariant S.A., priority 2010, dated 2016).

Some results are limits rather than exact numbers.

For one data set, the system named is Algae suspension. Put plainly: Algae growth test on leached dry paint film. In kind it is cell-based. Conditions: ppm of BKC relatively to the paint, after leaching. As for the experimental part:
Test specimens were prepared by application of two paint coats on watercolor paper ([…]) for each biocidal composition. After application, test specimens were dried during 7 days. After drying, coated substrates were cut in 30 mm squares. The test specimens were evaluated after a leaching test where the coated substrates were leached for 8 and 24 hours in 2 L containers of water with a flow rate such that there are 6 changes of the water in a period of 24 hours. Coated substrates were dried to room temperature for 48 hours and then evaluated in terms of microbiological effectiveness. The algicidal effect on dry film was evaluated as described bellow: Inoculums were prepared with a suspension of algae species (Trentepohlia odorata, Chlorella sp and Scenedesmus quadricauda) at concentration of 10^6 cells/mL. Coated substrates were placed on the center of a pre-poured Bold's Basal Medium agar plates. A thin coat of the algae suspension was applied over the plates. Plates were incubated with humidity ≧85%, 25° C. and cycle of 12 hours light and 12 hours darkness. For each biocidal composition the test was done three times. The algae growth on the sample surface was evaluated weekly for 3 weeks using the following scale: […]

The nature of data set [1]: Tray test for leaching of biocides from paint film. It is filed as physicochemical. As to conditions: paint with 1000 ppm biocidally active agent, 500 mL distilled water, detection limit 50 ppm. As for the experimental part: Additionally, the leaching of biocides was evaluated through a tray test in which 50 g of the a paint formulation containing 1000 ppm of biocidally active agent was applied in the bottom of a tray (23.5×38.0 cm) each time and the painting procedure was repeated twice. The film was dried at room temperature for seven days and then 500 mL of distilled water was added to the tray, after 1, 3, 6 and 24 hours a 10 mL sample were taken and analyzed for determination of the biocides.

With “C12/C14-alkyldimethyl benzyl ammonium chloride [Dodigen ® 2808]”, the figures for the “Effective concentration against algae (ppm relatively to the paint)” value with Algae suspension and in the data set on Algae suspension (listed as neat BKC) were >>2000 ppm of BKC and more than 2000 ppm, respectively. Moreover, the “Tray test: biocide leached into water” value in data set [1] (1 hour) came out at 164 ppm; in data set [1] (3 hours), 177 ppm; in data set [1] (6 hours), 190 ppm; in data set [1] (24 hours), 224 ppm.
